Results as given in patent publication US12618095B2, “Medium for Bacillus cereus group detection” (SHIMADZU DIAGNOSTICS CORPORATION, priority 2020, dated 2026).

Columns and labels:
[1] = test system: C. albicans; test: Test Example 9: concentration of amphotericin B
[2] = test system: B. thuringiensis; test: Test Example 9: concentration of amphotericin B; assay type: cell-based; conditions: NBRC101235

Measured: Number of colonies

C[C@@H]1[C@H](O)[C@@H](C)/C=C/C=C/C=C/C=C/C=C/C=C/C=C/[C@H](O[C@@H]2O[C@H](C)[C@@H](O)[C@H](N)[C@@H]2O)C[C@@H]2O[C@](O)(C[C@@H](O)C[C@@H](O)[C@H](O)CC[C@@H](O)C[C@@H](O)CC(=O)O[C@H]1C)C[C@H](O)[C@H]2C(=O)O [Amphotericin B]
−: [1]; ATCC10231, Amphotericin B 0.1 mg, 24 hours, 10^2 cfu/mL | [1]; ATCC10231, Amphotericin B 0.1 mg, 24 hours, 10^3 cfu/mL | [1]; ATCC10231, Amphotericin B 0.1 mg, 24 hours, 10^4 cfu/mL | [1]; ATCC10231, Amphotericin B 0.1 mg, 24 hours, 10^5 cfu/mL | [1]; ATCC10231, Amphotericin B 0.1 mg, 44 hours, 10^2 cfu/mL | [1]; ATCC10231, Amphotericin B 0.1 mg, 44 hours, 10^3 cfu/mL | [1]; ATCC10231, Amphotericin B 0.1 mg, 44 hours, 10^4 cfu/mL | [1]; ATCC10231, Amphotericin B 1.0 mg, 24 hours, 10^2 cfu/mL | [1]; ATCC10231, Amphotericin B 1.0 mg, 24 hours, 10^3 cfu/mL | [1]; ATCC10231, Amphotericin B 1.0 mg, 24 hours, 10^4 cfu/mL | [1]; ATCC10231, Amphotericin B 1.0 mg, 24 hours, 10^5 cfu/mL | [1]; ATCC10231, Amphotericin B 1.0 mg, 44 hours, 10^2 cfu/mL | [1]; ATCC10231, Amphotericin B 1.0 mg, 44 hours, 10^3 cfu/mL | [1]; ATCC10231, Amphotericin B 1.0 mg, 44 hours, 10^4 cfu/mL | [1]; ATCC10231, Amphotericin B 1.0 mg, 44 hours, 10^5 cfu/mL | [1]; ATCC10231, Amphotericin B 10 mg, 24 hours, 10^2 cfu/mL | [1]; ATCC10231, Amphotericin B 10 mg, 24 hours, 10^3 cfu/mL | [1]; ATCC10231, Amphotericin B 10 mg, 24 hours, 10^4 cfu/mL | [1]; ATCC10231, Amphotericin B 10 mg, 24 hours, 10^5 cfu/mL | [1]; ATCC10231, Amphotericin B 10 mg, 44 hours, 10^2 cfu/mL | [1]; ATCC10231, Amphotericin B 10 mg, 44 hours, 10^3 cfu/mL | [1]; ATCC10231, Amphotericin B 10 mg, 44 hours, 10^4 cfu/mL | [1]; ATCC10231, Amphotericin B 10 mg, 44 hours, 10^5 cfu/mL | [1]; ATCC14053, Amphotericin B 0.1 mg, 24 hours, 10^2 cfu/mL | [1]; ATCC14053, Amphotericin B 0.1 mg, 24 hours, 10^3 cfu/mL | [1]; ATCC14053, Amphotericin B 0.1 mg, 24 hours, 10^4 cfu/mL | [1]; ATCC14053, Amphotericin B 0.1 mg, 24 hours, 10^5 cfu/mL | [1]; ATCC14053, Amphotericin B 0.1 mg, 44 hours, 10^2 cfu/mL | [1]; ATCC14053, Amphotericin B 0.1 mg, 44 hours, 10^3 cfu/mL | [1]; ATCC14053, Amphotericin B 0.1 mg, 44 hours, 10^4 cfu/mL | [1]; ATCC14053, Amphotericin B 1.0 mg, 24 hours, 10^2 cfu/mL | [1]; ATCC14053, Amphotericin B 1.0 mg, 24 hours, 10^3 cfu/mL | [1]; ATCC14053, Amphotericin B 1.0 mg, 24 hours, 10^4 cfu/mL | [1]; ATCC14053, Amphotericin B 1.0 mg, 24 hours, 10^5 cfu/mL | [1]; ATCC14053, Amphotericin B 1.0 mg, 44 hours, 10^2 cfu/mL | [1]; ATCC14053, Amphotericin B 1.0 mg, 44 hours, 10^3 cfu/mL | [1]; ATCC14053, Amphotericin B 1.0 mg, 44 hours, 10^4 cfu/mL | [1]; ATCC14053, Amphotericin B 1.0 mg, 44 hours, 10^5 cfu/mL | [1]; ATCC14053, Amphotericin B 10 mg, 24 hours, 10^2 cfu/mL | [1]; ATCC14053, Amphotericin B 10 mg, 24 hours, 10^3 cfu/mL | [1]; ATCC14053, Amphotericin B 10 mg, 24 hours, 10^4 cfu/mL | [1]; ATCC14053, Amphotericin B 10 mg, 24 hours, 10^5 cfu/mL | [1]; ATCC14053, Amphotericin B 10 mg, 44 hours, 10^2 cfu/mL | [1]; ATCC14053, Amphotericin B 10 mg, 44 hours, 10^3 cfu/mL | [1]; ATCC14053, Amphotericin B 10 mg, 44 hours, 10^4 cfu/mL | [1]; ATCC14053, Amphotericin B 10 mg, 44 hours, 10^5 cfu/mL
28: [2]; Amphotericin B 0.1 mg, 24 hours, 10^2 cfu/mL | [2]; Amphotericin B 0.1 mg, 44 hours, 10^2 cfu/mL
38: [2]; Amphotericin B 10 mg, 24 hours, 10^2 cfu/mL | [2]; Amphotericin B 10 mg, 44 hours, 10^2 cfu/mL
+: [2]; Amphotericin B 0.1 mg, 24 hours, 10^3 cfu/mL | [2]; Amphotericin B 0.1 mg, 24 hours, 10^4 cfu/mL | [2]; Amphotericin B 0.1 mg, 24 hours, 10^5 cfu/mL | [2]; Amphotericin B 0.1 mg, 44 hours, 10^3 cfu/mL | [2]; Amphotericin B 0.1 mg, 44 hours, 10^4 cfu/mL | [2]; Amphotericin B 0.1 mg, 44 hours, 10^5 cfu/mL | [2]; Amphotericin B 1.0 mg, 24 hours, 10^3 cfu/mL | [2]; Amphotericin B 1.0 mg, 24 hours, 10^4 cfu/mL | [2]; Amphotericin B 1.0 mg, 24 hours, 10^5 cfu/mL | [2]; Amphotericin B 1.0 mg, 44 hours, 10^3 cfu/mL | [2]; Amphotericin B 1.0 mg, 44 hours, 10^4 cfu/mL | [2]; Amphotericin B 1.0 mg, 44 hours, 10^5 cfu/mL | [2]; Amphotericin B 10 mg, 24 hours, 10^3 cfu/mL | [2]; Amphotericin B 10 mg, 24 hours, 10^4 cfu/mL | [2]; Amphotericin B 10 mg, 24 hours, 10^5 cfu/mL | [2]; Amphotericin B 10 mg, 44 hours, 10^3 cfu/mL | [2]; Amphotericin B 10 mg, 44 hours, 10^4 cfu/mL | [2]; Amphotericin B 10 mg, 44 hours, 10^5 cfu/mL
39: [2]; Amphotericin B 1.0 mg, 24 hours, 10^2 cfu/mL | [2]; Amphotericin B 1.0 mg, 44 hours, 10^2 cfu/mL
